Values quoted from earlier work in patent US20080096864A1, “Treatment Of Gastrointestinal Stromal Tumors With Imatinib And Midostaurin” (priority 2003, published 2008).

Tested on: advanced GIST
Conditions: GIST patients on imatinib, one study

**Q.** Which “primary resistance to imatinib, share of patients” value does the source give for Cc1ccc(NC(=O)c2ccc(CN3CCN(C)CC3)cc2)cc1Nc1nccc(-c2cccnc2)n1 [imatinib] here?
**A.** 13.7 % of patients
